Results reported in patent publication US20220211614A1, “COMPOSITIONS AND IMPLANTABLE DEVICES” (Commonwealth Scientific and Industrial Research Organisation, priority 2019, published 2022).
pEC50: −log10 of the molar value. No end group written: not given here.

Columns and labels:
[1] = cited from earlier work
[2] = molecular target: relaxin family peptide receptor 1 (RXFP1), stably expressed on human embryonic kidney cells (HEK-RXFP1) (UniProt Q9HBX9); assay: cell-based or functional assay
[3] = molecular target: T1, relaxin family peptide receptor 1 (RXFP1) (Homo sapiens, UniProt Q9HBX9); assay: HEK-RXFP1 cAMP reporter gene assay; format: cell-based
T1 construct: expressed in transfected cells; host or cells: HEK (human embryonic kidney) cells stably expressing RXFP1, with pCRE beta-galactosidase reporter
T1 sequence (Q9HBX9 1-757): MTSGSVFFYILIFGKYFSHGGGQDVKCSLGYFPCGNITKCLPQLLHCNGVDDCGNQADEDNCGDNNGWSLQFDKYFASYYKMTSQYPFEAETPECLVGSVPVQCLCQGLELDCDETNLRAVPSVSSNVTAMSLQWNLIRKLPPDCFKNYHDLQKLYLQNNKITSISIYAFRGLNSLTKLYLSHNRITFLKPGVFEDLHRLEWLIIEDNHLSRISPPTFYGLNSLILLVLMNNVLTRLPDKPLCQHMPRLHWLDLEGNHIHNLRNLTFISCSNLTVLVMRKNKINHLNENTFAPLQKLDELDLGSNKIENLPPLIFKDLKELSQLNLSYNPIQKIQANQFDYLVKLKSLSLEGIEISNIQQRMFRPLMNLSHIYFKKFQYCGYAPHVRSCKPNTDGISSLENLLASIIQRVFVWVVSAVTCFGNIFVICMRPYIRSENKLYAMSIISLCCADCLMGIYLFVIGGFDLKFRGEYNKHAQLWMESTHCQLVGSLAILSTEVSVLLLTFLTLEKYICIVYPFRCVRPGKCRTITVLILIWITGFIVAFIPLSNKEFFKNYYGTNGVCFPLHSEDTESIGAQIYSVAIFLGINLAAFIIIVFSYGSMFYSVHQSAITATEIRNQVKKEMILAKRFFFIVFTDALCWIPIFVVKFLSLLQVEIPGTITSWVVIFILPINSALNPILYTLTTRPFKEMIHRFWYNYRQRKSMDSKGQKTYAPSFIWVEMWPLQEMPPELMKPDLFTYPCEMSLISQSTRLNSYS
Experimental: HEK-RXFP1 cAMP Reporter Gene Assay
B7-33 activity at RXFP1 was assessed using a cAMP reporter gene assay as previously described (Scott et al. J. Biol. Chem. 2006, 281:34942-3495) with slight modification. PLGA B7-33 well plate coatings, and peptide controls in the absence of PLGA (dried peptide), were compared to solubilized B7-33 solution standards ([…]) and H2 relaxin (10 nM). Wells were seeded (25,000 cells per well, 100 μL) with dispersed HEK-RXFP1-pCRE reporter cells and incubated for 6 hours. Cells were then lysed and the reporter gene stimulated β-galactosidase activity was measured using a colorimetric substrate to evaluate the relative cAMP responses. Ligand-induced cAMP stimulation was expressed as a % of maximal response to H2 relaxin. Each data point was measured in triplicate and each experiment conducted independently at least three separate times.

Compound: CC(C)Oc1ccccc1C(=O)Nc1ccccc1C(=O)Nc1cccc(S(=O)(=O)C(F)(F)F)c1 [ML290]
- in vivo half-life [1]: approximately 8 hours

Compound: B7-33 peptide (single B chain peptide analogue of H2 relaxin)
- EC50, cAMP reporter gene assay (beta-galactosidase, colorimetric) in HEK-RXFP1 cells; B7-33 peptide solution control [2]: 1000 nM
- EC50, cAMP reporter gene assay (beta-galactosidase, colorimetric) in HEK-RXFP1 cells; PLGA-free dried peptide control [2]: 1000 nM

Compound: VIKLSGRELVRAQIAISGMSTWSKRSL-NH2 [B7-33]
- retained activity against the RXFP1 receptor after drying/oxidation ([3]; HEK-RXFP1 cell assay (FIG. 2), oxidized species of B7-33 observed by MALDI): retains activity against the RXFP1 receptor
- pEC50 ([3]; cAMP reporter gene (β-galactosidase), HEK-RXFP1 cells, 6 hours incubation): 6.00

Compound: recombinant human relaxin 2
- in vivo half-life [1]: 40 min
